Results from US12721826B2, “Salt of a pharmaceutical compound” (ACTIMED THERAPEUTICS LTD, priority 2023, dated 2026).

Experiments:
[1] = Solid form stability: XRPD re-analysis after drying under vacuum and after storage at 40° C./75% RH; assay type: physicochemical; conditions: for hygroscopicity properties: overall assessment in words; for XRPD form after drying and storage: after drying at 40° C. under vacuum and storage at 40° C./75% RH
Description: XRPD analysis was carried out on a PANalytical X'pert pro with PIXcel detector (128 channels), scanning the samples between 3 and 35° 2θ. The material was gently ground to release any agglomerates and loaded onto a multi-well plate with Kapton or Mylar polymer film to support the sample. The multi-well plate was then placed into the diffractometer and analysed using Cu K radiation (α1 λ=1.54060 Å; α2=1.54443 Å; β=1.39225 Å; α1: α2 ratio=0.5) running in transmission mode (step size 0.0130° 2θ, step time 18.87s) using 40 kV/40 mA generator settings. Data were visualized and images generated using the HighScore Plus 4.7 desktop application (PANalytical, 2017).
Solutions were allowed to evaporate at ambient temperature (ca. 20° C.) and pressure. Potential salts were dried at 40° C. under vacuum for ca. 19 h and re-analyzed by XRPD then stored at 40° C./75% RH for ca. 19 h and re-analyzed by XRPD.

[2] = counterion acid; cited from earlier work
[3] = 7 days storage stability of dihydrogenphosphate polymorphs (HPLC purity); conditions: for stability (comparison of polymorphs, in words): Pattern 3 compared with Pattern 1 and Pattern 2
[4] = storage at 40° C./75% RH, ca. 19 h
[5] = after drying at 40° C. under vacuum

In the case of `C=CCOc1ccccc1OC[C@@H](O)CNC(C)C.CC(=O)O` [Acetate Pattern 2], the “Observation after storage at 40° C./75% RH” value ([1]; material from THF) is reported as “partially deliquesce”, the “XRPD result after storage at 40° C./75% RH” value ([1]; material from acetone) is reported as “Pattern 2 peaks remained” and the “Observation after storage at 40° C./75% RH” value ([1]; material from acetone, ethyl acetate and t-BME) is reported as “deliquesced”. The “XRPD result after storage at 40° C./75% RH” value ([1]; material from ethyl acetate and t-BME) was “Predominantly amorphous material was obtained”.

In the case of `O=S(=O)(O)c1ccccc1` [Benzenesulfonic acid], the pKa1 [2] is listed as 0.7.

In the case of `CC1(C)C2CCC1(CS(=O)(=O)O)C(=O)C2` (stereo not shown) [Camphorsulfonic acid], the pKa1 [2] is listed as 2.2.

In the case of `O=C(O)[C@H](O)[C@@H](O)[C@H](O)[C@H](O)CO` [D-Gluconic acid], the pKa1 [2] is given as 3.8.

In the case of `O=S(=O)(O)CCS(=O)(=O)O` [Ethane-1,2-disulfonic acid], the pKa1 [2] is listed as −2.1 and the pKa2 [2] is listed as −1.5.

For `CCS(=O)(=O)O` [Ethanesulfonic acid], the pKa1 [2] is listed as 2.1.

In the case of `O=C(O)CCCC(=O)O` [Glutaric acid], the pKa1 [2] is listed as 4.34.

For `O=C(O)CNC(=O)c1ccccc1` [Hippuric acid], the pKa1 [2] is listed as 3.6.

For `O=S(=O)(O)c1cccc2c(S(=O)(=O)O)cccc12` [Naphthalene-1,5-disulfonic acid], the pKa1 [2] is listed as −3.4 and the pKa2 [2] is listed as −2.6.

With `C=CCOc1ccccc1OC[C@@H](O)CNC(C)C.O=C(O)C(=O)O` [Oxalate Pattern 1 & 2, S-oxprenolol oxalate] the “Observation after storage at 40° C./75% RH” value [1, 4] was “predominantly unchanged”.

For `O=C(O)c1cc2ccccc2c(Cc2c(O)c(C(=O)O)cc3ccccc23)c1O` [Pamoic acid], the pKa1 [2] is given as 2.5 and the pKa2 [2] is given as 3.1.

In the case of `O=C(O)c1ccccc1C(=O)O` [Phthalic acid], the pKa1 [2] is given as 2.89 and the pKa2 [2] is given as 5.51.

For `C=CCOc1ccccc1OC[C@@H](O)CNC(C)C.O=P(O)(O)O` [S-oxprenolol dihydrogenphosphate Pattern 1], the “stability (comparison of polymorphs, in words)” value (“stability” below) [3] was “issues with stability” and the “XRPD form after stress” value ([1]; after heating to 40° C., drying at ambient temperature (ca. 20° C.) under vacuum and storage at 40° C./75% RH) was “dihydrogenphosphate Pattern 1 to remain”.

With `C=CCOc1ccccc1OC[C@@H](O)CNC(C)C.O=P(O)(O)O` [S-oxprenolol dihydrogenphosphate Pattern 2] the “stability” value [3] was “issues with stability”, the “XRPD form after drying” value ([1]; dried under vacuum at ambient temperature (ca. 20° C.) for ca. 69 h, precipitated from ethanol/heptane) was “phosphate Pattern 3 was obtained after drying” and the “XRPD form after drying” value ([1]; isolated from temperature cycling in 1-butanol, after drying) was “converted to phosphate Pattern 3”.

For `C=CCOc1ccccc1OC[C@@H](O)CNC(C)C.O=P(O)(O)O` [S-oxprenolol dihydrogenphosphate Pattern 3], the “stability” value [3] was “improved stability”, the “HPLC purity following storage” value ([3]; after 7 days storage at 40° C./75% RH) was greater than 99.9 % area and the “HPLC purity following storage” value ([3]; after 7 days storage at ambient temperature) was greater than 99.9 % area.

In the case of `C=CCOc1ccccc1OC[C@@H](O)CNC(C)C.CC(=O)O` [acetate salt], the hygroscopicity properties [1] is reported as “poor”.

In the case of `C=CCOc1ccccc1OC[C@@H](O)CNC(C)C.O=C(O)CNC(=O)c1ccccc1` [hippurate Pattern 1], the “XRPD form after drying” value [1, 5] is reported as “hippurate Pattern 1 was retained”, the hygroscopicity properties [1] is reported as “poor” and the “Observation after storage at 40° C./75% RH” value [1, 4] is reported as “deliquescence was observed to amorphous materials”.

With `C=CCOc1ccccc1OC[C@@H](O)CNC(C)C.O=C(O)C(=O)O` [oxalate Pattern 1, S-oxprenolol oxalate] the “XRPD form after drying and storage” value [1] was “oxalate Pattern 1 was retained”.

With `C=CCOc1ccccc1OC[C@@H](O)CNC(C)C.O=C(O)C(=O)O` [oxalate Pattern 2, S-oxprenolol oxalate] the “XRPD form after drying” value [1, 5] was “a mixture of Pattern 1 and 2 was obtained”.

In the case of `C=CCOc1ccccc1OC[C@@H](O)CNC(C)C.O=C(O)c1ccc2ccccc2c1O` [xinafoate Pattern 1], the “XRPD form after drying and storage” value [1] is reported as “xinafoate Pattern 1 was retained”.
